Assay results reported in publication PMC6220894 (Food and chemical toxicology : an international journal …, 2018).
Read-outs that look alike come from different tables or passages of the source.

Key:
[1] = test system: Salmonella typhimurium TA 1535; assay type: cell-based; details: plate incorporation
[2] = test system: Salmonella typhimurium TA 98; experiment: Ames bacterial reverse mutation assay, plate incorporation method; assay type: cell-based
[3] = test system: Salmonella typhimurium TA 102; experiment: as above; assay type: cell-based
[4] = test system: Salmonella typhimurium TA 1537; experiment: Ames bacterial reverse mutation assay, pre-incubation method; assay type: cell-based
[5] = test system: Salmonella typhimurium TA 98; experiment: as above; assay type: cell-based
[6] = test system: Salmonella typhimurium TA 100; assay type: cell-based; details: pre-incubation
[7] = test system: Salmonella typhimurium TA 102; experiment: Ames bacterial reverse mutation assay, pre-incubation method; assay type: cell-based
[8] = test system: CYP1A2; experiment: CYP mRNA induction in human hepatocytes; assay type: in vitro ADME; details: 0.3, 3, 30 µM; 72 hours; 3 donors
[9] = test system: CYP2B6; experiment: CYP mRNA induction in human hepatocytes; assay type: in vitro ADME; details: 0.3, 3, 30 µM; 72 hours; 3 donors
[10] = test system: CYP3A4; experiment: CYP mRNA induction in human hepatocytes; assay type: in vitro ADME; details: 0.3, 3, 30 µM; 72 hours; 3 donors
[11] = test system: CYP1A2 or CYP3A4; experiment: CYP mRNA induction in human hepatocytes, isoform not given; assay type: in vitro ADME; details: 0.3 µM; one donor; isoform not stated
[12] = target: hERG (Homo sapiens, UniProt Q12809); assay type: cell-based
Sequence of hERG (Q12809 whole entry): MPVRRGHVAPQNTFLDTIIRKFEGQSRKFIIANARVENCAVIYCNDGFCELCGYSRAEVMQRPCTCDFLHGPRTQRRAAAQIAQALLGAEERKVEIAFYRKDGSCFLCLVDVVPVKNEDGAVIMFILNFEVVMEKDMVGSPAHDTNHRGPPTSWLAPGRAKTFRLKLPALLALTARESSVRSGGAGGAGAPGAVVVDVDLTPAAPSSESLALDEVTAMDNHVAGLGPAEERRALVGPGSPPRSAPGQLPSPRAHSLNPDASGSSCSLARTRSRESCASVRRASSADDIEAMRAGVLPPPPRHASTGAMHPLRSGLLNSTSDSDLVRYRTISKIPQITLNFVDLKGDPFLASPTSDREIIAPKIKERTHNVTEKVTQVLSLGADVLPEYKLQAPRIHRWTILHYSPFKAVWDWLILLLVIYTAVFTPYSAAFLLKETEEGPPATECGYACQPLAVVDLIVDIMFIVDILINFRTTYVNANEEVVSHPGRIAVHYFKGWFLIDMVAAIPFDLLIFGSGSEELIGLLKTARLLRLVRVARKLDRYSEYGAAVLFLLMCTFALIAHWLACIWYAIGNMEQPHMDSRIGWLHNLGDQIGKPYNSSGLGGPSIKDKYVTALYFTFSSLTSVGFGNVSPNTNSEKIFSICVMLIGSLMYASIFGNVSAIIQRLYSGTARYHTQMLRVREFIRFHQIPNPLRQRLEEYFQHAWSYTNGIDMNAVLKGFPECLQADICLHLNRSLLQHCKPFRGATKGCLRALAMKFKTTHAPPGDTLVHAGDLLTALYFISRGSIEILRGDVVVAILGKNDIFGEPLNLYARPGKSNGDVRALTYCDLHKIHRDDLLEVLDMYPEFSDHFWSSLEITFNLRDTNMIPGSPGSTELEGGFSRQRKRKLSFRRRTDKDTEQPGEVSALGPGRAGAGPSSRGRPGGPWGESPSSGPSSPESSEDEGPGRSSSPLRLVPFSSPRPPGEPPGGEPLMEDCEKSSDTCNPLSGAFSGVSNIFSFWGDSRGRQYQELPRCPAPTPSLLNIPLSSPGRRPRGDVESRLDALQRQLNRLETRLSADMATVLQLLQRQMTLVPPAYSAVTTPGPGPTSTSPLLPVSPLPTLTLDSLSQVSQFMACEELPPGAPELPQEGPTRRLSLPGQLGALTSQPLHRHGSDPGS

[13] = Plasma protein binding by equilibrium dialysis; assay type: in vitro ADME; details: male, Sprague-Dawley, rat, plasma, pH 7.4
[14] = test system: plasma protein; experiment: Plasma protein binding by equilibrium dialysis; assay type: in vitro ADME; details: rat plasma, mean ± SE
[15] = Red blood cell distribution in whole blood; assay type: in vitro ADME; details: human, whole blood (pooled, EDTA)
[16] = Red blood cell distribution in whole blood; assay type: in vitro ADME; details: male, Sprague-Dawley, rat, whole blood (EDTA)
[17] = Stability in rabbit whole blood; assay type: in vitro ADME
[18] = In vitro metabolism in cryopreserved hepatocytes; assay type: in vitro ADME; details: rat hepatocytes; 25 µM; 4 hours
[19] = In vitro metabolism in cryopreserved hepatocytes; assay type: in vitro ADME; details: rabbit hepatocytes; 25 µM; 4 hours
[20] = In vitro metabolism in cryopreserved hepatocytes; assay type: in vitro ADME; details: human hepatocytes; 25 µM; 4 hours
[21] = test system: C. elegans; details: ref Nguyen et al., 2016; cited from earlier work
[22] = test system: hypertension; details: mice; ref Wu et al., 2016; cited from earlier work
[23] = in vitro; details: both, human, plasma (pooled), pH 7.4
[24] = mice; long-term (10 month) administration; ref Davies et al., 2011; cited from earlier work
[25] = +S9, 0.05 mg/plate as printed (third dose row)
[26] = −S9, 0.05 mg/plate as printed (third dose row)

In the case of `CC(=O)O.NCc1ccccc1O` [2-HOBA, 2-Hydroxybenzylamine acetate], the “Mean plate counts (revertant colonies)” value ([1]; +S9, 0.05 mg/plate) is reported as 9.3±1.5, the “Mean plate counts (revertant colonies)” value [1, 25] is reported as 10.7±0.6 and the “Mean plate counts (revertant colonies)” value ([1]; +S9, 0.15 mg/plate) is reported as 9.0±1.0. For the same compound, the “Mean plate counts (revertant colonies)” value ([1]; +S9, 1.5 mg/plate) was 10.3±1.5, the “Mean plate counts (revertant colonies)” value ([1]; +S9, 5 mg/plate) was 10.3±1.5 and the “Change in revertant colony counts vs negative control (mutagenicity)” value (from here on “Change in revertant colony counts”) ([1]; +S9 and −S9, all dose levels) was “No changes in revertant colony counts were observed”. The “Mean plate counts (revertant colonies)” value ([1]; −S9, 0.05 mg/plate) was 10.7±0.6, the “Mean plate counts (revertant colonies)” value [1, 26] was 10.7±1.2 and the “Mean plate counts (revertant colonies)” value ([1]; −S9, 0.15 mg/plate) was 11.0±1.0. The “Mean plate counts (revertant colonies)” value ([1]; −S9, 1.5 mg/plate) was 10.7±1.2, the “Mean plate counts (revertant colonies)” value ([1]; −S9, 5 mg/plate) was 11.0±1.0 and the “Mean plate counts (revertant colonies)” value ([2]; +S9, 0.05 mg/plate) was 20.7±1.2. For the same compound, the “Mean plate counts (revertant colonies)” value [2, 25] was 20.7±1.2, the “Mean plate counts (revertant colonies)” value ([2]; +S9, 0.15 mg/plate) was 21.0±3.0 and the “Mean plate counts (revertant colonies)” value ([2]; +S9, 1.5 mg/plate) was 21.3±1.5. For the same compound, the “Mean plate counts (revertant colonies)” value ([2]; +S9, 5 mg/plate) was 22.0±2.0, the “Change in revertant colony counts” value ([2]; +S9 and −S9, all dose levels) was “No changes in revertant colony counts were observed” and the “Mean plate counts (revertant colonies)” value ([2]; −S9, 0.05 mg/plate) was 19.7±1.5. For the same compound, the “Mean plate counts (revertant colonies)” value [2, 26] was 22.0±3.6, the “Mean plate counts (revertant colonies)” value ([2]; −S9, 0.15 mg/plate) was 20.0±1.0 and the “Mean plate counts (revertant colonies)” value ([2]; −S9, 1.5 mg/plate) was 21.3±1.5. For the same compound, the “Mean plate counts (revertant colonies)” value ([2]; −S9, 5 mg/plate) was 21.0±2.0, the “Mean plate counts (revertant colonies)” value ([3]; +S9, 0.05 mg/plate) was 302.7±11.4 and the “Mean plate counts (revertant colonies)” value [3, 25] was 323.3±61.2. The “Mean plate counts (revertant colonies)” value ([3]; +S9, 0.15 mg/plate) was 296.7±27.2, the “Mean plate counts (revertant colonies)” value ([3]; +S9, 1.5 mg/plate) was 293.3±24.2 and the “Mean plate counts (revertant colonies)” value ([3]; +S9, 5 mg/plate) was 282.7±19.0. For the same compound, the “Change in revertant colony counts” value ([3]; +S9 and −S9, all dose levels) was “No changes in revertant colony counts were observed”, the “Mean plate counts (revertant colonies)” value ([3]; −S9, 0.05 mg/plate) was 292.7±6.4 and the “Mean plate counts (revertant colonies)” value [3, 26] was 279.3±14.2. The “Mean plate counts (revertant colonies)” value ([3]; −S9, 0.15 mg/plate) was 287.3±24.0, the “Mean plate counts (revertant colonies)” value ([3]; −S9, 1.5 mg/plate) was 297.3±6.4 and the “Mean plate counts (revertant colonies)” value ([3]; −S9, 5 mg/plate) was 328.0±63.2. The “Mean plate counts (revertant colonies)” value ([4]; +S9, 0.05 mg/plate) was 6.7±0.6, the “Mean plate counts (revertant colonies)” value ([4]; +S9, 0.15 mg/plate) was 7.3±1.2 and the “Mean plate counts (revertant colonies)” value ([4]; +S9, 0.5 mg/plate) was 8.0±1.0. The “Mean plate counts (revertant colonies)” value ([4]; +S9, 1.5 mg/plate) was 7.0±1.0, the “Mean plate counts (revertant colonies)” value ([4]; +S9, 5 mg/plate) was 6.3±1.5 and the “Change in revertant colony counts” value ([4]; +S9 and −S9, all dose levels) was “No changes in revertant colony counts were observed”. For the same compound, the “Mean plate counts (revertant colonies)” value ([4]; −S9, 0.05 mg/plate) was 6.7±0.6, the “Mean plate counts (revertant colonies)” value [4, 26] was 7.0±0.0 and the “Mean plate counts (revertant colonies)” value ([4]; −S9, 0.15 mg/plate) was 6.0±1.0. For the same compound, the “Mean plate counts (revertant colonies)” value ([4]; −S9, 1.5 mg/plate) was 6.0±1.0, the “Mean plate counts (revertant colonies)” value ([4]; −S9, 5 mg/plate) was 6.3±1.2 and the “Mean plate counts (revertant colonies)” value ([5]; +S9, 0.05 mg/plate) was 25.7±3.1. The “Mean plate counts (revertant colonies)” value ([5]; +S9, 0.15 mg/plate) was 23.7±2.5, the “Mean plate counts (revertant colonies)” value ([5]; +S9, 0.5 mg/plate) was 24.3±2.1 and the “Mean plate counts (revertant colonies)” value ([5]; +S9, 1.5 mg/plate) was 25.7±3.1. The “Mean plate counts (revertant colonies)” value ([5]; +S9, 5 mg/plate) was 22.3±3.2, the “Change in revertant colony counts” value ([5]; +S9 and −S9, all dose levels) was “No changes in revertant colony counts were observed” and the “Mean plate counts (revertant colonies)” value ([5]; −S9, 0.05 mg/plate) was 20.0±1.0. The “Mean plate counts (revertant colonies)” value [5, 26] was 20.7±2.1, the “Mean plate counts (revertant colonies)” value ([5]; −S9, 0.15 mg/plate) was 16.7±1.5 and the “Mean plate counts (revertant colonies)” value ([5]; −S9, 1.5 mg/plate) was 22.3±3.2. The “Mean plate counts (revertant colonies)” value ([5]; −S9, 5 mg/plate) was 23.0±1.0, the “Mean plate counts (revertant colonies)” value ([6]; +S9, 0.05 mg/plate) was 114.7±12.9 and the “Mean plate counts (revertant colonies)” value ([6]; +S9, 0.15 mg/plate) was 120.7±7.6. The “Mean plate counts (revertant colonies)” value ([6]; +S9, 0.5 mg/plate) was 119.3±7.6, the “Mean plate counts (revertant colonies)” value ([6]; +S9, 1.5 mg/plate) was 112.0±7.2 and the “Mean plate counts (revertant colonies)” value ([6]; +S9, 5 mg/plate) was 114.0±12.5. The “Change in revertant colony counts” value ([6]; +S9 and −S9, all dose levels) was “No changes in revertant colony counts were observed”, the “Mean plate counts (revertant colonies)” value ([6]; −S9, 0.05 mg/plate) was 98.7±2.3 and the “Mean plate counts (revertant colonies)” value [6, 26] was 103.7±1.5. The “Mean plate counts (revertant colonies)” value ([6]; −S9, 0.15 mg/plate) was 96.7±6.1, the “Mean plate counts (revertant colonies)” value ([6]; −S9, 1.5 mg/plate) was 94.7±4.2 and the “Mean plate counts (revertant colonies)” value ([6]; −S9, 5 mg/plate) was 105.3±6.1. The “Mean plate counts (revertant colonies)” value ([7]; +S9, 0.05 mg/plate) was 280.0±6.0, the “Mean plate counts (revertant colonies)” value ([7]; +S9, 0.15 mg/plate) was 271.3±11.0 and the “Mean plate counts (revertant colonies)” value ([7]; +S9, 0.5 mg/plate) was 256.0±7.2. For the same compound, the “Mean plate counts (revertant colonies)” value ([7]; +S9, 1.5 mg/plate) was 283.3±16.2, the “Mean plate counts (revertant colonies)” value ([7]; +S9, 5 mg/plate) was 256.7±8.1 and the “Change in revertant colony counts” value ([7]; +S9 and −S9, all dose levels) was “No changes in revertant colony counts were observed”. For the same compound, the “Mean plate counts (revertant colonies)” value ([7]; −S9, 0.05 mg/plate) was 241.3±12.1, the “Mean plate counts (revertant colonies)” value [7, 26] was 236.0±15.6 and the “Mean plate counts (revertant colonies)” value ([7]; −S9, 0.15 mg/plate) was 232.7±3.1. The “Mean plate counts (revertant colonies)” value ([7]; −S9, 1.5 mg/plate) was 250.0±12.5, the “Mean plate counts (revertant colonies)” value ([7]; −S9, 5 mg/plate) was 250.7±14.0 and the “CYP1A2 mRNA induction (concentration-dependent >2-fold increase)” value [8] was “no evidence of mRNA induction”. For the same compound, the “CYP2B6 mRNA induction (concentration-dependent >2-fold increase)” value [9] was “no evidence of mRNA induction”, the “CYP3A4 mRNA induction (concentration-dependent >2-fold increase)” value [10] was “no evidence of mRNA induction” and the “percent induction relative to positive control induction level” value [11] was “less than 5 % of positive control”. The IC50 [12] was over 100 µM, the “Inhibition of hERG current” value ([12]; 0.1 µM) was “no inhibition” and the “Inhibition of hERG current” value ([12]; 1 µM, mean ± SE) was 3.0 ± 0.5 % inhibition. The “Inhibition of hERG current” value ([12]; 10 µM, mean ± SE) was 9.7 ± 1.8 % inhibition, the “Inhibition of hERG current” value ([12]; 100 µM, mean ± SE) was 29.1 ± 1.3 % inhibition and the fraction unbound at 4 h, 1 µM [13] was 0.76 ± 0.051. The fraction unbound at 4 h, 10 µM [13] was 0.951, the “fb (bound fraction)” value ([14]; 1 µM) was 0.240 ± 0.051 and the “fb (bound fraction)” value ([14]; 10 µM) was 0.049 ± 0.029. It also gave a Kp at 2 h, 1 µM [15] of 1.26 ± 0.01, a Kp at 2 h, 10 µM [15] of 1.08 and a blood plasma ratio at 2 h, 1 µM [15] of 1.12 ± 0.03. For the same compound, the blood plasma ratio at 2 h, 10 µM [15] was 1.04, the Kp at 2 h, 1 µM [16] was 0.72 ± 0.1 and the Kp at 2 h, 10 µM [16] was 0.78. The blood plasma ratio at 2 h, 1 µM [16] was 0.87 ± 0.05, the blood plasma ratio at 2 h, 10 µM [16] was 0.9 and the “stability in the presence of semicarbazide” value ([17]; rabbit blood fortified with semicarbazide (100 µm)) was “prevented the degradation of 2-HOBA”. The time until undetectable ([17]; rabbit whole blood, 1 µM, 37°C) was at most 2 h, the fraction metabolized ([17]; rabbit whole blood, within 30 min) was “more than 60%” and the fraction metabolized ([17]; rabbit whole blood, within 2 hours) was “nearly all”. For the same compound, the principle metabolites observed [18] was “salicylic acid (M1) and the glycoside conjugate metabolite of 2-HOBA”, the principle metabolites observed [19] was “salicylic acid (M1) and the glycoside conjugate metabolite of 2-HOBA” and the principle metabolites observed [20] was “salicylic acid (M1) and the glycoside conjugate metabolite of 2-HOBA”. The lifespan [21] was “increased lifespan”, the hypertension [22] was “improved hypertension” and the fraction unbound at 4 h, 1 µM [23] was 0.921 ± 0.024. For the same compound, the fraction unbound at 4 h, 10 µM [23] was 0.86 and the “body weight or survival” value [24] was “did not affect body weight or survival”.
